Where two headings read alike, the source gives them in different places.
Columns and labels:
[1] = Diafiltration study of kinetically and thermodynamically bound drug; assay type: physicochemical
Experimental: Diafiltration studies were carried out to determine the fraction of amitriptyline (AMT) that was kinetically or thermodynamically bound to poly(sodium 4-styrenesulfonate (PSS) as the nanoparticle. For this study, diafiltration was been modeled as a two-compartment system, where a continuous liquid supply from the donor chamber (reservoir) is kept, maintaining a constant volume in the diafiltration cell. The unit used for diafiltration analyses consisted of a diafiltration cell, a regenerated cellulose membrane, a reservoir, a […], and a pressure source. […] The volume in the filtration cell was kept constant during the experiment, by creating a continuous flux of liquid through the diafiltration cell, from the reservoir to the collector tube. […] A total of 8 samples (approx. 5 mL) were collected and AMT concentration in each sample was determined by spectrophotometry. Subsequently, the thermodynamically bound (TB) and kinetically bound (KB) fractions were determined as follows: TB=v(km-j)/km KB=u-um The parameters v and u represent the initial fraction of AMT thermodynamically bound to the particles, thus in equilibrium, and the fraction bound to the nanocarriers whose release is kinetically controlled, respectively. […] A total of 8 samples (approx. 5 mL) were collected and the concentration of the interest species in each sample was determined by spectrophotometry. […]

[2] = cited from earlier work
[3] = In vitro drug release by dialysis; assay type: physicochemical; settings: AMT/PSS n+/n−=0.60, dialysis, pH=7 and 37° C., 20 days
Experimental: The in vitro drug release of amitriptyline (AMT) from poly (sodium 4-styrenesulfonate (PSS) was evaluated using a dialysis method. Briefly, 5 mL of AMT/PSS (n+/n−=0.60) was transferred to a dialysis membrane. The membrane was immersed in 95 mL of Milli-Q water at pH 7 and kept at 37° C. and 100 rpm in an orbital shaker. The experiment was carried out for 20 days. Aliquots (500 μL) of the solution were withdrawn at certain time intervals and replaced with an equal volume of fresh Milli-Q water. The amount of released AMT was determined by measuring the absorbance of each aliquot at 239 nm. The standard curve of AMT in water was linear (R2>0.997) in the range of concentrations between 7×10^−5 M and 7×10^−7 M (molar extinction coefficient was 12712 M^−1 cm^−1). Blank experiments dialyzing free AMT were carried out at the same conditions.
i) Dialysis: 5 mL of HALMD/PSS formulations were added in a dialysis bag (MWCO 10 kDa, ThermoScientific, USA). The dialysis system was immersed in 95 mL of Milli-Q water at pH 7 and kept at 37° C., and 100 rpm in an orbital shaker (LSI-3016R, LabTech, Daihan LabTech, Kyonggi-Do, Korea). […] The amount of released HALMD (CQ, PMZ and CPM) was determined by measuring the absorbance of each aliquot by spectrophotometry (Agilent 8453 spectrophotometer, USA).

[4] = cited from earlier work; remark: listed apart in the source

CN(C)CCC=C1c2ccccc2CCc2ccccc21 [AMT, amitriptyline]
drug molecules not subjected to equilibrium with the bulk (release kinetically controlled) ([1]; AMT/PSS formulations): more than 80% | release ([2]; from polyvinyl alcohol-based beads, first stage of the experiment (Ahnfelt et al)): > 80% | release of AMT [3]: ≤ 16.5%

CN(C)CCC(c1ccc(Cl)cc1)c1ccccn1 (centres unmarked) [Chlorpheniramine]
drug association attributed to kinetic binding ([1]; HALMD/PSS NPs): ≈ 50% | pKa [4]: 4.0 | pKa ([4]; second value): 9.4

COc1cccc2c1C(=O)c1c(O)c3c(c(O)c1C2=O)C[C@@](O)(C(=O)CO)C[C@@H]3O[C@H]1C[C@H](N)[C@H](O)[C@H](C)O1 [doxorubicin]
initial drug release ([2]; poly(N-isopropylacrylamide)-based thermosensitive hydrogel (Chen et al)): 40%

CN(C)CCCN1c2ccccc2CCc2ccccc21 [imipramine]
burst release ([2]; from calcium-alginate gel beads, 1-2 h (Tomida et al)): ≈ 80%
